Laboratory results as given in ChEMBL document CHEMBL3727348, “3-(aryl or heteroaryl) methyleneindolin-2-one derivatives as inhibitors of cancer stem cell pathway kinases for the treatment of cancer” (2014).

target: AMP-activated protein kinase, AMPK (Homo sapiens) (UniProt P54646+O43741+P54619+Q9UGJ0+Q9Y478+Q13131+Q9UGI9); assay: Inhibition of AMPK in human HeLa cells assessed as kinase phosphorylation level at 5 uM incubated for 6 hrs by SDS-PAGE based chemiluminescence assay; format: cell-based; parameters: scale not given: the % may be the effect or the level left; conditions: not given

Activity [%]	SMILES
83	Cc1cc(C)c(/C=C2\C(=O)Nc3c2cccc3-c2ccncc2)[nH]1
145	COc1ncc(-c2cccc3c2/C(=C/c2[nH]c(C)cc2C)C(=O)N3)cn1
150	CCN(CC)CCNC(=O)c1c(C)[nH]c(/C=C2\C(=O)Nc3cc(-c4ccc(-c5ccccc5)s4)ccc32)c1C
108	Cc1[nH]c(/C=C2\C(=O)Nc3cc(-c4ccc(-c5ccccc5)s4)ccc32)c(C)c1C(=O)N1CCN(C)CC1
113	Cc1cc(C)c(/C=C2\C(=O)Nc3c2cccc3-c2cncnc2)[nH]1
21	CCN(CC)CCNC(=O)c1c(C)[nH]c(/C=C2\C(=O)Nc3ccc(-c4ccc(-c5cccs5)s4)cc32)c1C
91	COc1ccc(-c2cccc3c2NC(=O)/C3=C\c2[nH]c(C)cc2C)cn1
198	Cc1cc(C)c(/C=C2\C(=O)Nc3cccc(-c4cncnc4)c32)[nH]1
118	Cc1[nH]c(/C=C2\C(=O)Nc3cc(-c4csc(-c5ccccc5)n4)ccc32)c(C)c1C(=O)N1CCOCC1
105	COc1ncccc1-c1cccc2c1/C(=C/c1[nH]c(C)cc1C)C(=O)N2
108	Cc1cc(C)c(/C=C2\C(=O)Nc3c2cccc3-c2cncc3ccccc23)[nH]1

tested on: ACHN; assay: Cytotoxic activity against human ACHN cancer stem cells incubated for 72 hrs by Cell-titer-Glo luminescence assay; format: functional, cell-based; conditions: not given

SMILES	IC50 [µM]
Cc1cc(C)c(/C=C2\C(=O)Nc3ccc(-c4csc(-n5ccnc5)n4)cc32)[nH]1	2.72
CCN(CC)CCNC(=O)c1c(C)[nH]c(/C=C2\C(=O)Nc3ccc(-c4ccc(C(=O)O)s4)cc32)c1C	2.28
CCN(CC)CCNC(=O)CCc1c(C)[nH]c(/C=C2\C(=O)Nc3ccc(-c4csc(-c5ccncc5)n4)cc32)c1C	1.24

target: T1, Ribosomal protein S6 kinase (Homo sapiens) (UniProt P51812+Q9UBS0+O75676+Q15349+O75582+P23443+Q9UK32+Q15418); assay: Inhibition of RPS6 kinase in human HeLa cells assessed as p-RPS6 Ser235/236 phosphorylation level at 5 uM incubated for 6 hrs by SDS-PAGE based chemiluminescence assay; format: cell-based; parameters: scale not given: the % may be the effect or the level left; conditions: not given

Activity [%]	SMILES
68	Cc1cc(C)c(/C=C2\C(=O)Nc3c2cccc3-c2ccncc2)[nH]1
77	COc1ncc(-c2cccc3c2/C(=C/c2[nH]c(C)cc2C)C(=O)N3)cn1
5	CCN(CC)CCNC(=O)c1c(C)[nH]c(/C=C2\C(=O)Nc3cc(-c4ccc(-c5ccccc5)s4)ccc32)c1C
36	Cc1[nH]c(/C=C2\C(=O)Nc3cc(-c4ccc(-c5ccccc5)s4)ccc32)c(C)c1C(=O)N1CCN(C)CC1
51	Cc1cc(C)c(/C=C2\C(=O)Nc3c2cccc3-c2cncnc2)[nH]1
5	CCN(CC)CCNC(=O)c1c(C)[nH]c(/C=C2\C(=O)Nc3ccc(-c4ccc(-c5cccs5)s4)cc32)c1C
63	COc1ccc(-c2cccc3c2NC(=O)/C3=C\c2[nH]c(C)cc2C)cn1
44	Cc1cc(C)c(/C=C2\C(=O)Nc3cccc(-c4cncnc4)c32)[nH]1
4	Cc1[nH]c(/C=C2\C(=O)Nc3cc(-c4csc(-c5ccccc5)n4)ccc32)c(C)c1C(=O)N1CCOCC1
67	COc1ncccc1-c1cccc2c1/C(=C/c1[nH]c(C)cc1C)C(=O)N2
86	Cc1cc(C)c(/C=C2\C(=O)Nc3c2cccc3-c2cncc3ccccc23)[nH]1

tested on: A549; assay: Cytotoxic activity against human A549 cancer stem cells incubated for 72 hrs by Cell-titer-Glo luminescence assay; format: functional, cell-based; conditions: A549, 72 h

SMILES	IC50 [µM]
COc1ccc(-c2cccc3c2NC(=O)/C3=C\c2[nH]c(C)cc2C)cn1	43.4
Cc1cc(C)c(/C=C2\C(=O)Nc3ccc(-c4csc(-n5ccnc5)n4)cc32)[nH]1	35
CCN(CC)CCNC(=O)c1c(C)[nH]c(/C=C2\C(=O)Nc3ccc(-c4ccc(C(=O)O)s4)cc32)c1C	8.82
CCN(CC)CCNC(=O)CCc1c(C)[nH]c(/C=C2\C(=O)Nc3ccc(-c4csc(-c5ccncc5)n4)cc32)c1C	35.7

tested on: A549; assay: Cytotoxic activity against human A549 bulk cells incubated for 72 hrs by Cell-titer-Glo luminescence assay; format: functional, cell-based; conditions: A549, 72 h

SMILES	IC50 [µM]
Cc1cc(C)c(/C=C2\C(=O)Nc3c2cccc3-c2ccncc2)[nH]1	23.5
COc1ncc(-c2cccc3c2/C(=C/c2[nH]c(C)cc2C)C(=O)N3)cn1	21.1
Cc1[nH]c(/C=C2\C(=O)Nc3ccc(-c4nnc(-c5ccccc5)s4)cc32)c(C)c1C(=O)N1CCN(C)CC1	48.9
Cc1cc(C)c(/C=C2\C(=O)Nc3c2cccc3-c2cncnc2)[nH]1	25.2
COc1ccc(-c2cccc3c2NC(=O)/C3=C\c2[nH]c(C)cc2C)cn1	24.4
Cc1cc(C)c(/C=C2\C(=O)Nc3cccc(-c4cncnc4)c32)[nH]1	16.3
Cc1cc(C)c(/C=C2\C(=O)Nc3ccc(-c4csc(-n5ccnc5)n4)cc32)[nH]1	9.31
CCN(CC)CCNC(=O)c1c(C)[nH]c(/C=C2\C(=O)Nc3ccc(-c4ccc(C(=O)O)s4)cc32)c1C	2.2
CCN(CC)CCNC(=O)CCc1c(C)[nH]c(/C=C2\C(=O)Nc3ccc(-c4csc(-c5ccncc5)n4)cc32)c1C	10.1
Cc1cc(C)c(/C=C2\C(=O)Nc3c2cccc3-c2cncc3ccccc23)[nH]1	19.7

tested on: FaDu; assay: Cytotoxic activity against human FADU cancer stem cells incubated for 72 hrs by Cell-titer-Glo luminescence assay; format: functional, cell-based; conditions: not given

SMILES	IC50 [µM]
Cc1[nH]c(/C=C2\C(=O)Nc3ccc(-c4nnc(-c5ccccc5)s4)cc32)c(C)c1C(=O)N1CCN(C)CC1	0.23
CCN(CC)CCNC(=O)c1c(C)[nH]c(/C=C2\C(=O)Nc3cc(-c4ccc(-c5ccccc5)s4)ccc32)c1C	30.5
CCN(CC)CCNC(=O)c1c(C)[nH]c(/C=C2\C(=O)Nc3ccc(-c4ccc(-c5cccs5)s4)cc32)c1C	0.83
CCN(CC)CCNC(=O)c1c(C)[nH]c(/C=C2\C(=O)Nc3ccc(-c4ccc(-c5ccccc5)s4)cc32)c1C	1.2
Cc1[nH]c(/C=C2\C(=O)Nc3cc(-c4csc(-c5ccccc5)n4)ccc32)c(C)c1C(=O)N1CCOCC1	41.9
Cc1cc(C)c(/C=C2\C(=O)Nc3ccc(-c4csc(-n5ccnc5)n4)cc32)[nH]1	37.4
Cc1[nH]c(/C=C2\C(=O)Nc3ccc(-c4ccc(-c5ccccc5)s4)cc32)c(C)c1C(=O)N1CCN(C)CC1	1.16
CCN(CC)CCNC(=O)c1c(C)[nH]c(/C=C2\C(=O)Nc3ccc(-c4ccc(C(=O)O)s4)cc32)c1C	4.3
CCN(CC)CCNC(=O)CCc1c(C)[nH]c(/C=C2\C(=O)Nc3ccc(-c4csc(-c5ccncc5)n4)cc32)c1C	4.57

target: Serine/threonine-protein kinase RIO2 (Homo sapiens) (UniProt Q9BVS4); assay: Inhibition of N-terminal GST-fused full length human recombinant RIOK2 expressed in baculovirus Sf21 cells assessed as reduction in kinase auto-phosphorylation at 10 uM in presence of ATP incubated for 1 hr by ELISA method; conditions: not given
Sequence (Q9BVS4 whole entry, looked up, the tested form may be a part): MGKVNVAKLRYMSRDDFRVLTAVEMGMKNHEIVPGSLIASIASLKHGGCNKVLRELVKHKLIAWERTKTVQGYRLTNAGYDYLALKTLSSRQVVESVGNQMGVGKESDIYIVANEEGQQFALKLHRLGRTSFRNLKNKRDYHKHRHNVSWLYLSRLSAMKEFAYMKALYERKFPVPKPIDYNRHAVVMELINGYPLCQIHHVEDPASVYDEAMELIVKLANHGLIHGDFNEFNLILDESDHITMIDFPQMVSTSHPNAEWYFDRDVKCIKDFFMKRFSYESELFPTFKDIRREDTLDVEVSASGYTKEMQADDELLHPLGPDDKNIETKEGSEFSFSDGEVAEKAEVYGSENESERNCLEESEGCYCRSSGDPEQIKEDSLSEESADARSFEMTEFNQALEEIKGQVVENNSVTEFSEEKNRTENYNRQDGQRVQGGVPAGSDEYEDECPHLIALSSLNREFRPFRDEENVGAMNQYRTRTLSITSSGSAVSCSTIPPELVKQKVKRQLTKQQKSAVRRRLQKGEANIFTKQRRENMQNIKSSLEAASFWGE

inhibition [%]	SMILES
19	Cc1[nH]c(/C=C2\C(=O)Nc3ccc(-c4nnc(-c5ccccc5)s4)cc32)c(C)c1C(=O)N1CCN(C)CC1
69	Cc1[nH]c(/C=C2\C(=O)Nc3ccc(-c4cnn(-c5ccccc5)c4)cc32)c(C)c1C(=O)NC1CNCC(c2ccccc2)C1 (stereo unspecified)
79	Cc1[nH]c(/C=C2\C(=O)Nc3ccc(-c4cnn(-c5ccccc5)c4)cc32)c(C)c1C(=O)NCc1nc2ccccc2[nH]1
14	CCN(CC)CCNC(=O)c1c(C)[nH]c(/C=C2\C(=O)Nc3ccc(-c4ccc(-c5ccccc5)s4)cc32)c1C
65	Cc1[nH]c(/C=C2\C(=O)Nc3ccc(-c4ccc(-c5ccccc5)s4)cc32)c(C)c1C(=O)N1CCN(C)CC1

tested on: FaDu; assay: Cytotoxic activity against human FADU bulk cells incubated for 72 hrs by Cell-titer-Glo luminescence assay; format: functional, cell-based; conditions: not given

SMILES	IC50 [µM]
COc1ncc(-c2cccc3c2/C(=C/c2[nH]c(C)cc2C)C(=O)N3)cn1	35.3
Cc1[nH]c(/C=C2\C(=O)Nc3ccc(-c4nnc(-c5ccccc5)s4)cc32)c(C)c1C(=O)N1CCN(C)CC1	14.1
Cc1cc(C)c(/C=C2\C(=O)Nc3c2cccc3-c2cncnc2)[nH]1	28.1
CCN(CC)CCNC(=O)c1c(C)[nH]c(/C=C2\C(=O)Nc3ccc(-c4ccc(-c5cccs5)s4)cc32)c1C	2.51
COc1ccc(-c2cccc3c2NC(=O)/C3=C\c2[nH]c(C)cc2C)cn1	28.4
Cc1cc(C)c(/C=C2\C(=O)Nc3cccc(-c4cncnc4)c32)[nH]1	39.7
CCN(CC)CCNC(=O)c1c(C)[nH]c(/C=C2\C(=O)Nc3ccc(-c4ccc(-c5ccccc5)s4)cc32)c1C	4.74
COc1ncccc1-c1cccc2c1/C(=C/c1[nH]c(C)cc1C)C(=O)N2	22.6
Cc1cc(C)c(/C=C2\C(=O)Nc3ccc(-c4csc(-n5ccnc5)n4)cc32)[nH]1	14.5
Cc1[nH]c(/C=C2\C(=O)Nc3ccc(-c4ccc(-c5ccccc5)s4)cc32)c(C)c1C(=O)N1CCN(C)CC1	25.4
CCN(CC)CCNC(=O)c1c(C)[nH]c(/C=C2\C(=O)Nc3ccc(-c4ccc(C(=O)O)s4)cc32)c1C	1.21
CCN(CC)CCNC(=O)CCc1c(C)[nH]c(/C=C2\C(=O)Nc3ccc(-c4csc(-c5ccncc5)n4)cc32)c1C	28
Cc1cc(C)c(/C=C2\C(=O)Nc3c2cccc3-c2cncc3ccccc23)[nH]1	25.8

target: T1, Ribosomal protein S6 kinase (Homo sapiens); assay: Inhibition of RPS6 kinase in human HeLa cells assessed as p-RPS6 Ser240/244 phosphorylation level at 5 uM incubated for 6 hrs by SDS-PAGE based chemiluminescence assay; format: cell-based; parameters: scale not given: the % may be the effect or the level left; conditions: not given

Activity [%]	SMILES
65	Cc1cc(C)c(/C=C2\C(=O)Nc3c2cccc3-c2ccncc2)[nH]1
75	COc1ncc(-c2cccc3c2/C(=C/c2[nH]c(C)cc2C)C(=O)N3)cn1
56	CCN(CC)CCNC(=O)c1c(C)[nH]c(/C=C2\C(=O)Nc3cc(-c4ccc(-c5ccccc5)s4)ccc32)c1C
68	Cc1[nH]c(/C=C2\C(=O)Nc3cc(-c4ccc(-c5ccccc5)s4)ccc32)c(C)c1C(=O)N1CCN(C)CC1
50	Cc1cc(C)c(/C=C2\C(=O)Nc3c2cccc3-c2cncnc2)[nH]1
41	CCN(CC)CCNC(=O)c1c(C)[nH]c(/C=C2\C(=O)Nc3ccc(-c4ccc(-c5cccs5)s4)cc32)c1C
59	COc1ccc(-c2cccc3c2NC(=O)/C3=C\c2[nH]c(C)cc2C)cn1
43	Cc1cc(C)c(/C=C2\C(=O)Nc3cccc(-c4cncnc4)c32)[nH]1
44	Cc1[nH]c(/C=C2\C(=O)Nc3cc(-c4csc(-c5ccccc5)n4)ccc32)c(C)c1C(=O)N1CCOCC1
67	COc1ncccc1-c1cccc2c1/C(=C/c1[nH]c(C)cc1C)C(=O)N2
83	Cc1cc(C)c(/C=C2\C(=O)Nc3c2cccc3-c2cncc3ccccc23)[nH]1

tested on: ACHN; assay: Cytotoxic activity against human ACHN bulk cells incubated for 72 hrs by Cell-titer-Glo luminescence assay; format: functional, cell-based; conditions: not given

SMILES	IC50 [µM]
COc1ncc(-c2cccc3c2/C(=C/c2[nH]c(C)cc2C)C(=O)N3)cn1	28.1
Cc1cc(C)c(/C=C2\C(=O)Nc3c2cccc3-c2cncnc2)[nH]1	26.9
COc1ccc(-c2cccc3c2NC(=O)/C3=C\c2[nH]c(C)cc2C)cn1	28.3
Cc1cc(C)c(/C=C2\C(=O)Nc3cccc(-c4cncnc4)c32)[nH]1	16.8
CCN(CC)CCNC(=O)c1c(C)[nH]c(/C=C2\C(=O)Nc3ccc(-c4ccc(-c5ccccc5)s4)cc32)c1C	7.6
Cc1cc(C)c(/C=C2\C(=O)Nc3ccc(-c4csc(-n5ccnc5)n4)cc32)[nH]1	8.84
CCN(CC)CCNC(=O)c1c(C)[nH]c(/C=C2\C(=O)Nc3ccc(-c4ccc(C(=O)O)s4)cc32)c1C	2.04
CCN(CC)CCNC(=O)CCc1c(C)[nH]c(/C=C2\C(=O)Nc3ccc(-c4csc(-c5ccncc5)n4)cc32)c1C	7.42
Cc1cc(C)c(/C=C2\C(=O)Nc3c2cccc3-c2cncc3ccccc23)[nH]1	21
